≈ marks a conversion by molar mass, not a printed value. A value given as a limit tells only on which side of the number the result lay.

One experiment addresses T1, P. aeruginosa PBP3 (Pseudomonas aeruginosa, UniProt G3XD46).
T1 construct: made in house
Kind of experiment: Bocillin-FL fluorescence polarization competition binding assay, P. aeruginosa PBP3. Conditions: fluorescence polarization competition binding assay using Bocillin-FL. The method in brief:
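Inhibitor competition with Bocillin-FL for P. aeruginosa PBP3 was followed by fluorescence polarization on a Cytation3 (BioTek) reader, using g-factor 0.96, 490 nm excitation and 520 nm emission. The enzyme was at 0.75 μM and the probe at 0.1 μM in Hepes/NaCl/glycerol buffer, 80 μl per well. FP was recorded immediately after probe addition for up to 60 minutes. Potency was expressed as EC50, the concentration that reduces bound probe by 50%.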
In general terms: Polarisation of emitted light reports the rotation of a fluorescent probe.

The subject of experiment [1] is N. gonorrhoeae ATCC 49226. Kind of experiment: Liquid broth MIC in Fastidious broth. The format is cell-based. As to conditions: Neisseria gonorrhoeae, ATCC49226; N. gonorrhoeae strain ATCC 49226; Fastidious broth; read-out: Minimum Inhibitory Concentration, N. gonorrhoeae ATCC 49226. The method in brief:
(§1)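 Colonies were swabbed from chocolate agar after 24 h growth and standardised by optical density at 600 nm. Compounds were serially diluted twofold in Fastidious broth, and bacteria added to give 5×10^5 CFU/mL. After about 24 h at 36 °C in 5% CO2, the lowest concentration allowing under 10% growth was taken as MIC.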

In the next experiment the test system is N. gonorrhoeae FA1090. The experiment in a line: Liquid broth MIC in Fastidious broth. The format is cell-based. Conditions: Neisseria gonorrhoeae; N. gonorrhoeae strain FA1090; Fastidious broth; read-out: Minimum Inhibitory Concentration, N. gonorrhoeae FA1090. The method in brief:
as §1

A further experiment concerns N. gonorrhoeae H041. Kind of experiment: Liquid broth MIC in Fastidious broth. Format: cell-based. As to conditions: Neisseria gonorrhoeae, H041, read-out: Minimum Inhibitory Concentration, N. gonorrhoeae H041. The method in brief:
as §1

The next experiment has as its system N. gonorrhoeae WHO G. Kind of experiment: Liquid broth MIC in Fastidious broth. The format is cell-based. Conditions: Neisseria gonorrhoeae; N. gonorrhoeae strain WHO G; Fastidious broth; read-out: Minimum Inhibitory Concentration, N. gonorrhoeae WHO G. The method in brief: as §1
A further experiment deals with N. gonorrhoeae WHO K. Kind of experiment: Liquid broth MIC in Fastidious broth. Format: cell-based. Conditions: Neisseria gonorrhoeae, read-out: Minimum Inhibitory Concentration, N. gonorrhoeae WHO K. In short, it runs like this: as §1
For the next experiment, the system named is N. gonorrhoeae WHO L. Kind of experiment: Liquid broth MIC in Fastidious broth. Format: cell-based. Conditions: Neisseria gonorrhoeae; N. gonorrhoeae strain WHO L; Fastidious broth; read-out: Minimum Inhibitory Concentration, N. gonorrhoeae WHO L. The method in brief:
as §1

The next experiment has as its system N. gonorrhoeae WHO Q. Kind of experiment: Liquid broth MIC in Fastidious broth. The format is cell-based. As to conditions: Neisseria gonorrhoeae, read-out: Minimum Inhibitory Concentration, N. gonorrhoeae WHO Q. In short, it runs like this:
as §1

In a further experiment the test system is N. gonorrhoeae WHO Z. Kind of experiment: Liquid broth MIC in Fastidious broth. Format: cell-based. Conditions: Neisseria gonorrhoeae, read-out: Minimum Inhibitory Concentration, N. gonorrhoeae WHO Z. In short, it runs like this:
as §1

T1 sequence (G3XD46 whole entry): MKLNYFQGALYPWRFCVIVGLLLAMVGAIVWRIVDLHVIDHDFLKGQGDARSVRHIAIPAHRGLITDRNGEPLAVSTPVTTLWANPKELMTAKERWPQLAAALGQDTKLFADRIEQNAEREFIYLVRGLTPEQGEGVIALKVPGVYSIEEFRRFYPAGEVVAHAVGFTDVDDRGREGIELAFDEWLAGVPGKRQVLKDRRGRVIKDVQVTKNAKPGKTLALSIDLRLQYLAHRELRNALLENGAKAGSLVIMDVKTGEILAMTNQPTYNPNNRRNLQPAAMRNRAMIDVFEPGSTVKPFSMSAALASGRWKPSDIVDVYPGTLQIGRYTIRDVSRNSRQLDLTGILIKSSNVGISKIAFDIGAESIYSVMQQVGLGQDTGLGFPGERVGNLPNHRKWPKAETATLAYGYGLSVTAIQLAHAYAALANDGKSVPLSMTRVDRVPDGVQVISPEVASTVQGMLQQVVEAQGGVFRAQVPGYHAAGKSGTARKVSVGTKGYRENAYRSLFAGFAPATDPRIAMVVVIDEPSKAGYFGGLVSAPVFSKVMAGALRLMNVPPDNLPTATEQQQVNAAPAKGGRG

With `CCN1CCN(C(=O)NC(C(=O)N[C@H]2Cc3cccc(C(=O)O)c3OB2O)c2cc(F)c(O)c(Cl)c2)C(=O)C1=O` (stereo partly drawn) [Example 164, (3R)-3-(2-(3-chloro-5-fluoro-4-hydroxyphenyl)-2-(4-ethyl-2,3-dioxopiperazine-1-carboxamido)acetamido)-2-hydroxy-3,4-dihydro-2H-benzo[e][1,2]oxaborinine-8-carboxylic acid], the “P. aeruginosa PBP3 Potency” value on P. aeruginosa PBP3 is given as “D (D represents a potency <10 μM)”. Moreover, the MIC in experiment [1] was in the range of 4 to 8 µg/mL (≈ 6.94 to 13.9 µM); in the experiment with N. gonorrhoeae FA1090, 0.25 to 0.5 µg/mL (≈ 0.433 to 0.867 µM); in the experiment with N. gonorrhoeae H041 it was 16 to 32 µg/mL (≈ 27.7 to 55.5 µM); in the experiment with N. gonorrhoeae WHO G, 1 to 2 µg/mL (≈ 1.73 to 3.47 µM); with N. gonorrhoeae WHO K, 16 to 32 µg/mL (≈ 27.7 to 55.5 µM); in the experiment on N. gonorrhoeae WHO L it was 16 to 32 µg/mL (≈ 27.7 to 55.5 µM). Besides, the MIC with N. gonorrhoeae WHO Q was in the range of 16 to 32 µg/mL (≈ 27.7 to 55.5 µM); with N. gonorrhoeae WHO Z it was 4 to 8 µg/mL (≈ 6.94 to 13.9 µM).
Take `CCN1CCN(C(=O)NC(C(=O)N[C@H]2Cc3cccc(C(=O)O)c3OB2O)c2cc(Cl)c(O)c(Cl)c2)C(=O)C1=O` (stereo partly drawn) [Example 171, (3R)-3-(2-(3,5-dichloro-4-hydroxyphenyl)-2-(4-ethyl-2,3-dioxopiperazine-1-carboxamido)acetamido)-2-hydroxy-3,4-dihydro-2H-benzo[e][1,2]oxaborinine-8-carboxylic acid]: at P. aeruginosa PBP3, the “P. aeruginosa PBP3 Potency” value is “D (D represents a potency <10 μM)”. For the same compound, the MIC was 4 to 8 µg/mL (≈ 6.74 to 13.5 µM) in experiment [1]; 0.25 to 0.5 µg/mL (≈ 0.421 to 0.843 µM) in the experiment on N. gonorrhoeae FA1090; 16 to 32 µg/mL (≈ 27 to 53.9 µM) with N. gonorrhoeae H041; 4 to 8 µg/mL (≈ 6.74 to 13.5 µM) in the experiment on N. gonorrhoeae WHO G; 16 to 32 µg/mL (≈ 27 to 53.9 µM) in the experiment with N. gonorrhoeae WHO K; above 64 µg/mL in the experiment on N. gonorrhoeae WHO L. The values for the MIC in the experiment on N. gonorrhoeae WHO Q and with N. gonorrhoeae WHO Z were 16 to 32 µg/mL (≈ 27 to 53.9 µM) and 4 to 8 µg/mL (≈ 6.74 to 13.5 µM), respectively.
In the case of `CCN1CCN(C(=O)NC(C(=O)N[C@H]2Cc3cccc(C(=O)O)c3OB2O)c2cc(F)c(O)c(F)c2F)C(=O)C1=O` (stereo partly drawn) [Example 172, (3R)-3-(2-(4-ethyl-2,3-dioxopiperazine-1-carboxamido)-2-(2,3,5-trifluoro-4-hydroxyphenyl)acetamido)-2-hydroxy-3,4-dihydro-2H-benzo[e][1,2]oxaborinine-8-carboxylic acid], the “P. aeruginosa PBP3 Potency” value on P. aeruginosa PBP3 is recorded as “D (D represents a potency <10 μM)”. Moreover, the MIC in experiment [1] is 1 to 2 µg/mL (≈ 1.73 to 3.46 µM); in the experiment with N. gonorrhoeae FA1090 it was below 0.125 µg/mL; with N. gonorrhoeae H041 it was 16 to 32 µg/mL (≈ 27.7 to 55.3 µM); in the experiment on N. gonorrhoeae WHO G, 0.25 to 0.5 µg/mL (≈ 0.432 to 0.865 µM); in the experiment on N. gonorrhoeae WHO K it was 4 to 8 µg/mL (≈ 6.92 to 13.8 µM); with N. gonorrhoeae WHO L, 4 to 8 µg/mL (≈ 6.92 to 13.8 µM). Besides, the MIC lay within 4 to 8 µg/mL (≈ 6.92 to 13.8 µM) in the experiment on N. gonorrhoeae WHO Q and 1 to 2 µg/mL (≈ 1.73 to 3.46 µM) in the experiment with N. gonorrhoeae WHO Z.
For the compound `CCN1CCN(C(=O)NC(C(=O)N[C@H]2Cc3cccc(C(=O)O)c3OB2O)c2ccc(O)c(F)c2F)C(=O)C1=O` (stereo partly drawn) [Example 173], the “P. aeruginosa PBP3 Potency” value at P. aeruginosa PBP3 is on record as “D (D represents a potency <10 μM)”. The MIC in experiment [1] was 1 to 2 µg/mL (≈ 1.78 to 3.57 µM); in the experiment with N. gonorrhoeae FA1090, below 0.125 µg/mL; with N. gonorrhoeae H041, 16 to 32 µg/mL (≈ 28.6 to 57.1 µM); in the experiment on N. gonorrhoeae WHO G it was 1 to 2 µg/mL (≈ 1.78 to 3.57 µM); in the experiment on N. gonorrhoeae WHO K, 16 to 32 µg/mL (≈ 28.6 to 57.1 µM); in the experiment on N. gonorrhoeae WHO L, 16 to 32 µg/mL (≈ 28.6 to 57.1 µM). Further, the MIC with N. gonorrhoeae WHO Q lay within 16 to 32 µg/mL (≈ 28.6 to 57.1 µM); in the experiment with N. gonorrhoeae WHO Z, 4 to 8 µg/mL (≈ 7.14 to 14.3 µM).
Turning to `NCCN1CCN(C(=O)NC(C(=O)N[C@H]2Cc3cccc(C(=O)O)c3OB2O)c2c(F)c(F)c(O)c(F)c2F)C(=O)C1=O` (stereo partly drawn) [Example 174, (3R)-3-(2-(4-(2-aminoethyl)-2,3-dioxopiperazine-1-carboxamido)-2-(2,3,5,6-tetrafluoro-4-hydroxyphenyl)acetamido)-2-hydroxy-3,4-dihydro-2H-benzo[e][1,2]oxaborinine-8-carboxylic acid], the “P. aeruginosa PBP3 Potency” value at P. aeruginosa PBP3 was “D (D represents a potency <10 μM)”. The MIC in experiment [1] is 4 to 8 µg/mL (≈ 6.54 to 13.1 µM); in the experiment on N. gonorrhoeae FA1090, 0.25 to 0.5 µg/mL (≈ 0.409 to 0.818 µM); with N. gonorrhoeae H041 it was above 64 µg/mL; in the experiment with N. gonorrhoeae WHO G, 1 to 2 µg/mL (≈ 1.64 to 3.27 µM); in the experiment on N. gonorrhoeae WHO K it was above 64 µg/mL; in the experiment on N. gonorrhoeae WHO L it was 16 to 32 µg/mL (≈ 26.2 to 52.4 µM). The MIC with N. gonorrhoeae WHO Q and with N. gonorrhoeae WHO Z was 16 to 32 µg/mL (≈ 26.2 to 52.4 µM) each time.
As for `CCN1CCN(C(=O)NC(C(=O)N[C@H]2Cc3cccc(C(=O)O)c3OB2O)c2c(F)c(F)c(O)c(F)c2F)C(=O)C1=O` (stereo partly drawn) [Example 175, (3R)-3-(2-(4-ethyl-2,3-dioxopiperazine-1-carboxamido)-2-(2,3,5,6-tetrafluoro-4-hydroxyphenyl)acetamido)-2-hydroxy-3,4-dihydro-2H-benzo[e][1,2]oxaborinine-8-carboxylic acid], on P. aeruginosa PBP3, the “P. aeruginosa PBP3 Potency” value is on record as “D (D represents a potency <10 μM)”. Further, the MIC is 1 to 2 µg/mL (≈ 1.68 to 3.35 µM) in experiment [1]; below 0.125 µg/mL in the experiment on N. gonorrhoeae FA1090; 4 to 8 µg/mL (≈ 6.71 to 13.4 µM) in the experiment with N. gonorrhoeae H041; 0.25 to 0.5 µg/mL (≈ 0.419 to 0.839 µM) with N. gonorrhoeae WHO G; 1 to 2 µg/mL (≈ 1.68 to 3.35 µM) in the experiment on N. gonorrhoeae WHO K; 4 to 8 µg/mL (≈ 6.71 to 13.4 µM) in the experiment with N. gonorrhoeae WHO L. The MIC in the experiment on N. gonorrhoeae WHO Q and in the experiment on N. gonorrhoeae WHO Z was 1 to 2 µg/mL (≈ 1.68 to 3.35 µM) each time.
Consider `CCN1CCN(C(=O)NC(C(=O)N[C@H]2Cc3cccc(C(=O)O)c3OB2O)c2c(F)cc(NS(N)(=O)=O)cc2F)C(=O)C1=O` (stereo partly drawn) [Example 176, (3R)-3-(2-(2,6-difluoro-4-(sulfamoylamino)phenyl)-2-(4-ethyl-2,3-dioxopiperazine-1-carboxamido)acetamido)-2-hydroxy-3,4-dihydro-2H-benzo[e][1,2]oxaborinine-8-carboxylic acid], for which the “P. aeruginosa PBP3 Potency” value at P. aeruginosa PBP3 is given as “D (D represents a potency <10 μM)”. Also, the MIC in [1] is 4 to 8 µg/mL (≈ 6.27 to 12.5 µM); in the experiment on N. gonorrhoeae FA1090 it was 0.25 to 0.5 µg/mL (≈ 0.392 to 0.783 µM); with N. gonorrhoeae H041, above 64 µg/mL; in the experiment with N. gonorrhoeae WHO G it was 4 to 8 µg/mL (≈ 6.27 to 12.5 µM); with N. gonorrhoeae WHO K, above 64 µg/mL; with N. gonorrhoeae WHO L it was above 64 µg/mL. Besides, the MIC was above 64 µg/mL in the experiment on N. gonorrhoeae WHO Q and 16 to 32 µg/mL (≈ 25.1 to 50.1 µM) with N. gonorrhoeae WHO Z.
On to `NCCN1CCN(C(=O)NC(C(=O)N[C@H]2Cc3cccc(C(=O)O)c3OB2O)c2c(F)cc(NS(N)(=O)=O)cc2F)C(=O)C1=O` (stereo partly drawn) [Example 177, (3R)-3-(2-(4-(2-aminoethyl)-2,3-dioxopiperazine-1-carboxamido)-2-(2,6-difluoro-4-(sulfamoylamino)phenyl)acetamido)-2-hydroxy-3,4-dihydro-2H-benzo[e][1,2]oxaborinine-8-carboxylic acid], for which, on P. aeruginosa PBP3, the “P. aeruginosa PBP3 Potency” value is “D (D represents a potency <10 μM)”. In addition, the MIC in [1] was above 64 µg/mL; in the experiment with N. gonorrhoeae FA1090, 4 to 8 µg/mL (≈ 6.12 to 12.2 µM); with N. gonorrhoeae H041, above 64 µg/mL; in the experiment on N. gonorrhoeae WHO G it was 16 to 32 µg/mL (≈ 24.5 to 49 µM); in the experiment on N. gonorrhoeae WHO K, above 64 µg/mL; with N. gonorrhoeae WHO L, above 64 µg/mL. The MIC in the experiment with N. gonorrhoeae WHO Q and in the experiment on N. gonorrhoeae WHO Z was above 64 µg/mL in each case.
`NCCCN1CCN(C(=O)NC(C(=O)N[C@H]2Cc3ccc(F)c(C(=O)O)c3OB2O)c2c(F)cc(O)cc2F)C(=O)C1=O` (stereo partly drawn) [Example 178, (3R)-3-(2-(4-(3-aminopropyl)-2,3-dioxopiperazine-1-carboxamido)-2-(2,6-difluoro-4-hydroxyphenyl)acetamido)-7-fluoro-2-hydroxy-3,4-dihydro-2H-benzo[e][1,2]oxaborinine-8-carboxylic acid]: on P. aeruginosa PBP3, the “P. aeruginosa PBP3 Potency” value is reported as “D (D represents a potency <10 μM)”. Also, the MIC in [1] is 16 to 32 µg/mL (≈ 26.3 to 52.7 µM); in the experiment on N. gonorrhoeae FA1090, 4 to 8 µg/mL (≈ 6.59 to 13.2 µM); with N. gonorrhoeae H041, above 64 µg/mL; with N. gonorrhoeae WHO G, 16 to 32 µg/mL (≈ 26.3 to 52.7 µM); in the experiment on N. gonorrhoeae WHO K, above 64 µg/mL; with N. gonorrhoeae WHO L, above 64 µg/mL. Moreover, the MIC in the experiment on N. gonorrhoeae WHO Q and with N. gonorrhoeae WHO Z was above 64 µg/mL throughout.

The record behind these values is patent US20230114728A1 (Venatorx Pharmaceuticals, Inc., priority 2019, published 2023).
